Results from publication PMC10895668, “Lead Optimization of the 5-Phenylpyrazolopyrimidinone NPD-2975 toward Compounds with Improved Antitrypanosomal Efficacy” (Journal of Medicinal Chemistry, 2024).
Read-outs that look alike come from different tables or passages of the source.

Key:
Trypanosoma cruzi = assay: Antiparasitic assay, T. cruzi; assay type: cell-based; conditions: mean ± SD, n ≥ 2, read-out: pIC50 T. cruzi (converted)
Description: (§1) First, they were tested in vitro against the protozoan species Trypanosoma cruzi and Leishmania infantum and the clinically relevant T. b. rhodesiense.
(§2) The antiparasitic assays were carried out exactly as described in Blaazer et al.([39]) Metabolic stability, pharmacokinetics, acute mouse infection model results were collected as described previously.[21] All animal experiments were conducted in compliance with institutional guidelines and following approval by the Ethical Committee of the University of Antwerp, Belgium [UA-ECD 2014–96]. Female Swiss mice (15–20 g), were purchased from Janvier (Le Genest Saint Isle, France). […] Animals were treated PO b.i.d. for 5 days at 25 and 50 mg/kg 31c. For the SL-RNA qPCR experiments blood was collected sublingually and subjected to erythrocyte lysis before extracting RNA with the QIAamp RNA Blood Mini kit (Qiagen). […] Small pieces of fat, brain, and spleen tissue were excised and immediately transferred to RNA later (Qiagen) and incubated overnight at 4 °C. RNA extraction was performed as instructed in the RNeasy Mini Plus Kit manual (Qiagen). The one-step SensiFAST SYBR Hi-Rox PCR kit (Bioline USA Inc., via Gentaur Belgium BVBA, Kampenhout, Belgium) was used for the PCR with the following forward and reverse primers, respectively 5′-[…]-3′ and 5′-[…]-3′. […]

T. b. brucei [1] = assay: Trypanosoma susceptibility assay (resazurin viability); assay type: cell-based; conditions: for IC50: Trypanosoma brucei
Description: (§3) The antiparasitic assays were carried out exactly as described in Blaazer et al.([39]) Metabolic stability, pharmacokinetics, acute mouse infection model results were collected as described previously.[21] All animal experiments were conducted in compliance with institutional guidelines and following approval by the Ethical Committee of the University of Antwerp, Belgium [UA-ECD 2014–96]. Female Swiss mice (15–20 g), were purchased from Janvier (Le Genest Saint Isle, France). […] Animals were treated PO b.i.d. for 5 days at 25 and 50 mg/kg 31c. For the SL-RNA qPCR experiments blood was collected sublingually and subjected to erythrocyte lysis before extracting RNA with the QIAamp RNA Blood Mini kit (Qiagen). […] Small pieces of fat, brain, and spleen tissue were excised and immediately transferred to RNA later (Qiagen) and incubated overnight at 4 °C. RNA extraction was performed as instructed in the RNeasy Mini Plus Kit manual (Qiagen). The one-step SensiFAST SYBR Hi-Rox PCR kit (Bioline USA Inc., via Gentaur Belgium BVBA, Kampenhout, Belgium) was used for the PCR with the following forward and reverse primers, respectively 5′-[…]-3′ and 5′-[…]-3′. An initial activation step of 10 min at 45 °C and 10 min at 95 °C was used, followed by the amplification step for 40 cycles (15 s at 95 °C, 15 s 50 °C and 15 s at 60 °C). At last, the melting curves were generated with an increment of 0.3 °C (15 s at 95 °C 1 min at 45 °C and 15 s at 95 °C). The PCR was run on the Step One Plus real-time PCR system (Applied Biosystems, California, USA). An additional qPCR was performed with the mouse housekeeping gene Eef2 to confirm successful RNA extraction.
In vitro experiments were carried out with the bloodstream form of the T. b. brucei Squib strain (suramin-sensitive). Parasites were routinely cultured in T25 culture flasks containing 10 mL of HMI-9 medium (Invitrogen) supplemented with 10% heat-inactivated fetal bovine serum (Life Technologies) and 2.5 μg/mL Geneticin (Life Technologies). MRC-5SV2 cells were cultured in MEM + Earl’s salts-medium, supplemented with 2 mM L-glutamine, 16.5 mM NaHCO3, and 5% inactivated fetal calf serum. All cultures and assays were conducted at 37 °C under an atmosphere of 5% CO2.
(§4) Parasites were counted in a KOVA counting chamber and diluted to 1.5 × 10^4 parasites/well of a 96-well plate (200 μL total volume), upon which the prediluted test compounds were added. Drug exposure covered a 72 h period without renewal of the culture medium. After 3 days of incubation, parasite growth was assessed fluorimetrically after addition of 50 μL of resazurin per well. After 6 h (T. b. rhodesiense) or 24 h (T. b. brucei) at 37 °C, fluorescence is measured (λex 550 nm, λem 590 nm). Parasite viability was assessed using the resazurin viability assay, and drug activity was calculated as percentage viability reduction compared to nontreated controls.

T. b. rhodesiense = assay: as above; assay type: cell-based; conditions: Trypanosoma brucei, mean ± SD, n ≥ 2, read-out: pIC50 T. b. rhodesiense (converted)
Description: The antiparasitic assays were carried out exactly as described in Blaazer et al.([39]) Metabolic stability, pharmacokinetics, acute mouse infection model results were collected as described previously.[21] All animal experiments were conducted in compliance with institutional guidelines and following approval by the Ethical Committee of the University of Antwerp, Belgium [UA-ECD 2014–96]. Female Swiss mice (15–20 g), were purchased from Janvier (Le Genest Saint Isle, France). […] Animals were treated PO b.i.d. for 5 days at 25 and 50 mg/kg 31c. For the SL-RNA qPCR experiments blood was collected sublingually and subjected to erythrocyte lysis before extracting RNA with the QIAamp RNA Blood Mini kit (Qiagen). […]
as §4, with “Drug exposure covered a 72 h period without renewal of the culture medium.” left out

T. b. brucei [2] = conditions: for survival: n = 3
Description: as §3
Mice were allocated to groups of three and were infected by IP injection of 10^4T. brucei Squib 427 trypomastigotes. […] Suramin was included as a reference for T. brucei and injected IP s.i.d. for 5 days at 10 mg/kg. A PEG400 vehicle control group was also included. […] The first treatment was given 30 min prior to the artificial infection. Drug efficacy was evaluated by microscopic determination of the parasitemia in a blood drop collected from the tail vein at several time points until 63 days postinfection (dpi). […] An SL-RNA qPCR assay was performed in all surviving animals to confirm parasitological cure. For the SL-RNA qPCR, peripheral blood was subjected to erythrocyte lysis before extracting RNA with the QIAamp RNA Blood Mini kit (Qiagen). […] Small pieces of fat, brain, and spleen tissues were excised and immediately transferred to RNA later (Qiagen) and incubated overnight at 4 °C. RNA extraction was performed as instructed in the RNeasy Mini Plus Kit manual (Qiagen). […]

[3] = mouse, microsomes
MRC-5 cells = assay: MRC-5SV2 cytotoxicity assay; assay type: cell-based; conditions: Homo sapiens, MRC5, 72 h; cytotoxicity, 3 days incubation; mean ± SD, n ≥ 2; read-out: pIC50 MRC-5 (converted)
Description: The synthesized analogues were tested against T. b. brucei, and inhibition of MRC-5 (human lung fibroblasts MRC-5SV40) cell proliferation was included as cytotoxicity control. […] Analogue 17 with an amino group instead of the carbonyl group was prepared to improve solubility for further modification. […] In vitro experiments were carried out with the bloodstream form of the T. b. brucei Squib strain (suramin-sensitive). […] All cultures and assays were conducted at 37 °C under an atmosphere of 5% CO2. […] Cell growth is compared to untreated-control wells (100% cell growth) and medium-control wells (0% cell growth). […] After 4 h at 37 °C, fluorescence is measured (λex 550 nm, λem 590 nm). The results are expressed as % reduction in cell growth/viability compared to control wells and an IC50 and an IC90 (50 and 90% inhibitory concentrations) are determined.

Leishmania infantum = assay: Antiparasitic assay, L. infantum; assay type: cell-based; conditions: mean ± SD, n ≥ 2, read-out: pIC50 L. infantum (converted)
Description: as §1, §2

[4] = test system: peritoneal mouse macrophages (PMM); assay: Cytotoxicity on peritoneal mouse macrophages; assay type: cell-based; conditions: Macrophage, n ≥ 2

In the case of `CC(C)(C)c1n[nH]c2c(=O)[nH]c(-c3ccc(F)cc3)nc12` [31c, 3-(tert-Butyl)-5-(4-fluorophenyl)-1,6-dihydro-7H-pyrazolo[4,3-d]pyrimidin-7-one], the IC50 (Trypanosoma cruzi) is reported as > 63100 nM, the “improved potency compared to 2” value (T. b. brucei [1]; T. brucei, versus compound 2) is reported as 4 fold and the IC50 (T. b. brucei [1]; 72 h, T. b. brucei Squib bloodstream form, 72 h exposure, mean ± SD, n ≥ 2, read-out: pIC50 T. brucei (converted)) is reported as 15.8 nM. The IC50 (T. b. brucei [1]; read-out: IC50 against T. b. brucei) was 17 nM, the IC50 (T. b. rhodesiense) was 10 nM and the survival (T. b. brucei [2]; 25 mg/kg b.i.d. PO for 5 days, one accidental death in this group) was “survived throughout the 60 days postinfection follow-up period without relapse”. The survival (T. b. brucei [2]; 50 mg/kg b.i.d. PO for 5 days) was “survived throughout the 60 days postinfection follow-up period without relapse”, the “trypanosome Spliced Leader (SL) RNA by qPCR” value (T. b. brucei [2]; blood, spleen, fat and brain tissue of surviving animals) was “difficulty to detect trypanosome Spliced Leader (SL) RNA” and the “Phase-I metabolic stability (in words)” value [3] was “improved metabolic stability compared with 2”. For the same molecule, the parent compound remaining ([3]; 1 h) was “at least 69%”, the IC50 (MRC-5 cells) was > 63100 nM and the IC50 (Leishmania infantum) was > 63100 nM. For the same molecule, the IC50 [4] was > 63100 nM.
